Experimental findings from patent US9169247B2, “Tetrahydro-beta-carboline derivatives, synthesis and use thereof” (Southern Research Institute, priority 2009, dated 2015) are described below.

One data set concerns LOX IMVI. In words: Growth assay (Cell Titer Glo). In kind it is cell-based. Conditions: Homo sapiens; LOX IMVI / LOX IMV1, melanoma. Put shortly: (§1)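 5,000 cells/well, RPMI 1640/5% FBS, 37 °C, 5% CO2; 18-24 h attach; compound dilutions, 0.1% DMSO final; 72 h; luminescent viability read; IC50 via 4-parameter logistic.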
A general note: In ATP-based viability assays light output follows the ATP content of the culture.

In the next data set the test system is MCF-7. Briefly: Growth assay (Cell Titer Glo). In kind it is cell-based. Conditions: Homo sapiens, MCF7; MCF-7, breast. In short, it runs like this: as §1
The next data set relates to NCI-H23. Briefly: Growth assay (Cell Titer Glo). The format is cell-based. Conditions: Homo sapiens; NCI-H23, lung. In short, it runs like this: as §1
The test system of the next data set is CACO-2. In words: Growth assay (Cell Titer Glo). The format is cell-based. Conditions: Homo sapiens; CACO-2 colon; 72 h. Here is the method:
(§2) Compounds 2a-h were tested for tumor cell growth inhibitory activity using the human breast MDA-MB-231 and ZR75-1 tumor cell lines and the colon CACO-2, SW-1116, and HT-29 tumor cell lines.
(§3) All human tumor cell lines were obtained from ATCC and grown under standard cell culture conditions at 37° C. in a humidified atmosphere with 5% CO2. Cells were grown in RPMI 1640 supplemented with 5% fetal bovine serum 2 mM glutamine, 100 units/ml penicillin, 100 units/ml streptomycin, and 0.25 μg/ml amphotericin. Cells were harvested at 70 to 90% confluence with trypsin/EDTA and used immediately Cell count and viability was determined by Trypan blue staining followed by hemocytometry. Only cultures displaying >95% cell viability were used for experiments. HMEC were grown according to the specifications from the supplier (Lonzo).
(§4) Tissue culture microtiter 96-well plates were seeded with cells at a density of 5,000 cells/well. The plates were incubated for 18-24 hours prior to any treatment. All test compounds were solubilized in 100% DMSO and diluted with media to obtain a final DMSO concentration of 0.1%. Cell viability was measured 72 hours after treatment by the Cell Titer Glo Assay (Promega), which is a luminescent assay that is an indicator of live cells as a function of metabolic activity and ATP content. The assay was performed according to manufacturer's specifications. Luminescence was measured by a Perkin Elmer Victor® multi-label plate reader.^6
(§5) Dose response curves were analyzed using Prism™ 4 software (GraphPad) to calculate IC50 values using a four parameter logistic equation.

For a further data set, the system named is SW1116. In words: Growth assay (Cell Titer Glo). The format is cell-based. The settings on record: Homo sapiens, SW 1116; SW1116 colon; 72 h. On the procedure:
as §2, §3, §4, §5

In another data set the test system is ZR75-1. In words: Growth assay (Cell Titer Glo). The format is cell-based. Conditions: Homo sapiens, ZR-75-1; ZR75-1 breast; 72 h. On the procedure: as §2, §3, §4, §5
In another data set the test system is HT-29. Briefly: Growth assay (Cell Titer Glo). In kind it is cell-based, human. The settings on record: HT-29 colon. On the procedure:
as §2, §3, §4, §5

The test system of data set [1] is human Caki-1 renal tumor cell line. Briefly: Growth assay (Cell Titer Glo). In kind it is cell-based. On the procedure:
(§6) FIGS. 3A-B illustrate the anticancer activity of compound 2j. […] The cells with treated for 72 hours prior to measuring cell viability using the Cell Titer Glo assay (Promega Corp.). […] Tumor bearing mice were treated at a dose of 10 mg/kg one time per day for 22 days.
All human tumor cell lines were obtained from ATCC and grown under standard cell culture conditions at 37° C. in a humidified atmosphere with 5% CO2. Cells were grown in RPMI 1640 supplemented with 5% fetal bovine serum 2 mM glutamine, 100 units/ml penicillin, 100 units/ml streptomycin, and 0.25 μg/ml amphotericin. Cells were harvested at 70 to 90% confluence with trypsin/EDTA and used immediately Cell count and viability was determined by Trypan blue staining followed by hemocytometry. Only cultures displaying >95% cell viability were used for experiments. […]
Tissue culture microtiter 96-well plates were seeded with cells at a density of 5,000 cells/well. […] Cell viability was measured 72 hours after treatment by the Cell Titer Glo Assay (Promega), which is a luminescent assay that is an indicator of live cells as a function of metabolic activity and ATP content. […] Luminescence was measured by a Perkin Elmer Victor® multi-label plate reader.^6
as §5

A further data set concerns cGMP phosphodiesterase. Briefly: cGMP phosphodiesterase activity in whole cell lysates (fluorescence polarization). The format is biochemical, human. The settings on record: lysates from MDA-MB-231 cells treated for 18 hours; FIG. 2. Here is the method:
FIG. 2 illustrates cGMP phosphodiesterase inhibitory activity of compound 2f. Whole cell lysates from human MDA-MB-231 breast tumor cells treated for 18 hours with compound 2f were assayed for cGMP phosphodiesterase activity using a fluorescence polarization assay (Molecular Devices Inc).

In another data set the test system is A498. Briefly: Growth assay (Cell Titer Glo). In kind it is cell-based. The settings on record: Homo sapiens; A498, renal. In short, it runs like this: as §1
Another data set relates to A549. Briefly: Growth assay (Cell Titer Glo). The format is cell-based. Conditions: Homo sapiens; A549, lung. In short, it runs like this: as §1
In the next data set the test system is BT-549. In words: Growth assay (Cell Titer Glo). The format is cell-based. The settings on record: Homo sapiens; BT-549, breast. In short, it runs like this: as §1
A further data set has as its system COLO205. In words: Growth assay (Cell Titer Glo). The format is cell-based. The settings on record: Homo sapiens, COLO 205; COLO205, colon. Put shortly: as §1
The next data set relates to HCC-2998. In words: Growth assay (Cell Titer Glo). The format is cell-based. Conditions: Homo sapiens; HCC-2998, colon. In short, it runs like this: as §1
For another data set, the system named is HOP-92. In words: Growth assay (Cell Titer Glo). Conditions: Homo sapiens; HOP-92, lung. The format is cell-based. Put shortly:
as §1

In a further data set the test system is Hs578T. In words: Growth assay (Cell Titer Glo). The format is cell-based. The settings on record: Homo sapiens, Hs-578T, breast. Put shortly:
as §1

For the next data set, the system named is K562. In words: Growth assay (Cell Titer Glo). The settings on record: Homo sapiens; K562, hematopoietic. In kind it is cell-based. In short, it runs like this:
as §1

For the next data set, the system named is MDA-MB-435. Briefly: Growth assay (Cell Titer Glo). The settings on record: Homo sapiens; MDA-MB-435, melanoma. In kind it is cell-based. In short, it runs like this:
as §1

Another data set relates to MDA-MB-468. Briefly: Growth assay (Cell Titer Glo). The format is cell-based. The settings on record: Homo sapiens; MDA-MB-468, breast. In short, it runs like this: as §1
Another data set concerns NCI-H226. In words: Growth assay (Cell Titer Glo). In kind it is cell-based. Conditions: Homo sapiens; NCI-H226, lung. Put shortly:
as §1

Another data set has as its system NCI-H522. Briefly: Growth assay (Cell Titer Glo). The format is cell-based. The settings on record: Homo sapiens; NCI-H522, lung. In short, it runs like this: as §1
The test system of the next data set is OVCAR-3. In words: Growth assay (Cell Titer Glo). In kind it is cell-based. Conditions: Homo sapiens; OVCAR-3, ovarian. Put shortly: as §1
The next data set concerns SF-295. In words: Growth assay (Cell Titer Glo). Conditions: Homo sapiens; SF-295, CNS. The format is cell-based. Put shortly:
as §1

The subject of another data set is SK-MEL-2. In words: Growth assay (Cell Titer Glo). The settings on record: Homo sapiens; SK-MEL-2, melanoma. In kind it is cell-based. In short, it runs like this:
as §1

The subject of a further data set is SK-MEL-5. Briefly: Growth assay (Cell Titer Glo). The format is cell-based. The settings on record: Homo sapiens; SK-MEL-5, melanoma. Put shortly: as §1
Data set [2] concerns human Caki-1 renal tumor mouse xenograft. In words: Caki-1 renal tumor mouse xenograft model. The format is in vivo. Conditions: 10 mg/kg one time per day for 22 days; FIG. 3B. On the procedure:
as §6

“Also recorded” adds a separate entry of the source. Like-named read-outs stand apart in the source and are kept apart here.

What is called IC50 is the midpoint of a concentration-inhibition curve. By melting point is commonly meant the temperature of the solid-liquid transition. Molecule `COC(=O)[C@H]1Cc2c([nH]c3ccccc23)[C@H](c2cc(OC)ccc2OC)N1C(=O)CCl` [Compound 2f, Methyl (1S,3R)-1-(2,5-dimethoxyphenyl)-2-(2-chloroacetyl)-2,3,4,9-tetrahydro-1H-β-carboline-3-carboxylate] yielded a melting point of 232 °C. For the same molecule, in the data set on LOX IMVI, half-maximal inhibition (IC50) required 0.004 µM. The same molecule displayed an IC50 in the data set on MCF-7 of 3.75 µM. In addition, in the data set with NCI-H23, the IC50 is 0.013 µM. Further, the IC50 in the data set on CACO-2 came to 0.01 µM. The molecule further displayed an IC50 in the data set on SW1116 of 4.4 µM. Besides, inhibition in the data set with ZR75-1 was half-maximal at 1.2 µM (IC50). Moreover, the IC50 in the data set on HT-29 (72 h) is 0.452 µM. This molecule also displayed an IC50 with HT-29 (Homo sapiens, HT-29, 72 h) of 0.45 µM. In addition, the IC50 in data set [1] (CAKI-1, CAKI-1, renal, read-out: IC50) was less than 0.006 µM. The “cGMP PDE activity in lysates” value with cGMP phosphodiesterase was “selectively inhibited”.
In the case of `COC(=O)[C@H]1Cc2c([nH]c3ccccc23)[C@H](c2ccc(Cl)cc2Cl)N1C(=O)CCl` [Compound 2j, (1S,3R) Methyl 1-(2,4-dichlorophenyl)-2-(2-chloroacetyl)-2,3,4,9-tetrahydro-1H-β-carboline-3-carboxylate], the melting point lay within 106 to 109 °C. In the data set with A498, this molecule gave an IC50 of 0.096 µM. Also, the IC50 with A549 is more than 3 µM. Besides, half-maximal inhibition in the data set on BT-549 (IC50) was put at 0.76 µM. The IC50 in the data set with COLO205 is 1.44 µM. For the same molecule, the IC50 with HCC-2998 is 2.26 µM. The same molecule had a half-inhibitory concentration (IC50) with HOP-92 of 0.02 µM. For the same molecule, in the data set with Hs578T, the IC50 was 0.22 µM. For the same molecule, the IC50 in the data set with K562 was found to be 1.25 µM. The molecule further showed an IC50 in the data set on LOX IMVI of less than 0.001 µM. The IC50 in the data set on MCF-7 was more than 3 µM. It took 0.64 µM to reach half-maximal inhibition in the data set on MDA-MB-435 (IC50). Besides, half-maximal inhibition in the data set with MDA-MB-468 (IC50) required 0.13 µM. The molecule further returned a half-maximal inhibitory concentration (IC50) with NCI-H226 of 1.41 µM. This molecule also registered a half-maximal inhibitory concentration (IC50) in the data set with NCI-H23 of more than 3 µM. Half-maximal inhibition in the data set with NCI-H522 (IC50) required 0.016 µM. Half-maximal inhibition with OVCAR-3 (IC50) required 0.13 µM. In addition, in the data set with SF-295, half-maximal inhibition (IC50) was put at 0.07 µM. Also, in the data set with SK-MEL-2, the half-inhibitory concentration (IC50) came to 0.92 µM. In the data set with SK-MEL-5, the IC50 is more than 3 µM. This molecule displayed an IC50 in the data set on HT-29 (Homo sapiens, HT-29, 72 h) of 0.65 µM. In addition, the IC50 in data set [1] (CAKI-1, 72 h, FIG. 3A legend, read-out: IC50 value, tumor cell growth) turned out to be 0.0023 µM. Also, the “in vivo tumor growth” value in data set [2] was “strongly suppressed tumor growth; also recorded: strong in vivo antitumor activity”.
